# Measurements published in US6737383B1, “Herbicidal oxadiazolidines” (priority 1999, dated 2004).
# Columns and labels:
# bamyardgrass = test: Test B flood test barnyardgrass; format: in vivo, Echinochloa crus-galli
# Procedure, shortened: (§1)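 Flood test on plants grown to the 2-leaf stage; treated plants kept in greenhouse twelve to sixteen days, then visually rated against controls on a 0 (no effect) to 10 (complete control) scale.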
# cocklebur = test: Test B pre/postemergence cocklebur; format: in vivo, Xanthium strumarium
# Procedure, shortened: (§2)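 Herbicidal effect was estimated by eye on a ten-point control scale after plants spent twelve to sixteen days in a greenhouse following soil or foliar treatment. Foliar sprays targeted plants at one to four leaves; all doses were formulated in a non-phytotoxic solvent with surfactant.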
# rice = test: Test B flood test rice; format: in vivo, Oryza sativa
# Procedure, shortened: as §1
# duck salad = test: Test B flood test duck salad; format: in vivo, Heteranthera limosa
# Procedure, shortened: as §1
# pigweed = test: Test B pre/postemergence pigweed; format: in vivo, Amaranthus retroflexus
# Procedure, shortened: as §2
# blackgrass = test: Test B pre/postemergence blackgrass; format: in vivo, Alopecurus myosuroides
# Procedure, shortened: as §2
# bedstraw = test: Test B pre/postemergence bedstraw; format: in vivo, Galium aparine
# Procedure, shortened: as §2
# velvetleaf = test: Test B pre/postemergence velvetleaf; format: in vivo, Abutilon theophrasti
# Procedure, shortened: as §2
# purple nutsedge = test: Test B pre/postemergence purple nutsedge; format: in vivo, Cyperus rotundus
# Procedure, shortened: as §2
# morningglory = test: Test B pre/postemergence morningglory; format: in vivo, Ipomoea hederacea
# Procedure, shortened: as §2
# corn = test: Test B pre/postemergence corn; format: in vivo, Zea mays
# Procedure, shortened: as §2
# giant foxtail = test: Test B pre/postemergence giant foxtail; format: in vivo, Setaria faberii
# Procedure, shortened: as §2
# rape = test: Test B pre/postemergence rape; format: in vivo, Brassica napus
# Procedure, shortened: as §2
# sugar beet = test: Test B pre/postemergence sugar beet; format: in vivo, Beta vulgaris
# Procedure, shortened: as §2
# surinam grass = test: Test B pre/postemergence surinam grass; format: in vivo, Brachiaria decumbens
# Procedure, shortened: as §2
# [1] = Rate 62 g/ha, headed Pre-emergence (flood test species), scale 0 to 10 (0 no effect, 10 complete control)
# [2] = Rate 125 g/ha, Pre-emergence, flood test species, scale 0 to 10 where 0 is no effect and 10 is complete control
# [3] = Rate 250 g/ha, Pre-emergence, flood-test species, scale 0 to 10, 0 is no effect, 10 is complete control
# [4] = Rate 500 g/ha, Pre-emergence, flood test species, scale 0 to 10 (0 no effect, 10 complete control)
# [5] = Preemergence, Rate 62 g/ha, scale of 0 to 10 where 0 is no effect and 10 is complete control
# [6] = Preemergence, Rate 250 g/ha, scale of 0 to 10 where 0 is no effect and 10 is complete control
# [7] = Preemergence, Rate 500 g/ha, scale of 0 to 10 where 0 is no effect and 10 is complete control
# [8] = Rate 62 g/ha, Postemergence, scale 0 to 10 (0 no effect, 10 complete control)
# [9] = Rate 125 g/ha, Postemergence, scale of 0 to 10 where 0 is no effect and 10 is complete control
# [10] = Rate 250 g/ha, Postemergence, scale of 0 to 10 where 0 is no effect and 10 is complete control
# [11] = Rate 500 g/ha, Postemergence, scale 0 to 10, 0 no effect, 10 complete control
smiles,measurement,setting,value
C=CCn1c(=O)on(C(=O)N(c2ccc(Cl)cc2)C(C)C2CC2)c1=O (stereo not drawn) [Compound 325],Barnyardgrass plant response rating,bamyardgrass; [1],0
same,Barnyardgrass plant response rating,bamyardgrass; [2],0
same,Barnyardgrass plant response rating,bamyardgrass; [3],0
same,Barnyardgrass plant response rating,bamyardgrass; [4],0
same,Cocklebur plant response rating,cocklebur; [5],0
same,Cocklebur plant response rating (0 to 10 scale),"cocklebur; Preemergence, Rate 125 g/ha",0
same,Cocklebur plant response rating,cocklebur; [6],0
same,Cocklebur plant response rating,cocklebur; [7],0
same,Cocklebur plant response rating,cocklebur; [8],0
same,Cocklebur plant response rating,cocklebur; [9],0
same,"Plant response rating, Cocklebur",cocklebur; [10],0
same,"Plant response rating, Cocklebur",cocklebur; [11],3
same,Rice plant response rating,rice; [1],0
same,Rice plant response rating,rice; [2],0
same,Rice plant response rating,rice; [3],0
same,Rice plant response rating,rice; [4],0
same,Ducksalad plant response rating,duck salad; [1],0
same,Ducksalad plant response rating,duck salad; [2],0
same,Ducksalad plant response rating,duck salad; [3],0
same,Ducksalad plant response rating,duck salad; [4],0
same,Redroot pigweed plant response rating,pigweed; [5],0
same,Redroot pigweed plant response rating (0 to 10 scale),"pigweed; Preemergence, Rate 125 g/ha",0
same,Redroot pigweed plant response rating,pigweed; [6],0
same,Redroot pigweed plant response rating,pigweed; [7],0
same,Redroot pigweed plant response rating,pigweed; [8],0
same,Redroot pigweed plant response rating,pigweed; [9],0
same,"Plant response rating, Redroot pigweed",pigweed; [10],4
same,"Plant response rating, Redroot pigweed",pigweed; [11],7
same,Blackgrass plant response rating,blackgrass; [5],0
same,Blackgrass plant response rating (0 to 10 scale),"blackgrass; Preemergence, Rate 125 g/ha",1
same,Blackgrass plant response rating,blackgrass; [6],2
same,Blackgrass plant response rating,blackgrass; [7],7
same,Blackgrass plant response rating,blackgrass; [8],0
same,Blackgrass plant response rating,blackgrass; [9],0
same,"Plant response rating, Blackgrass",blackgrass; [10],3
same,"Plant response rating, Blackgrass",blackgrass; [11],7
same,Bedstraw plant response rating,bedstraw; [5],0
same,Bedstraw plant response rating (0 to 10 scale),"bedstraw; Preemergence, Rate 125 g/ha",0
same,Bedstraw plant response rating,bedstraw; [6],0
same,Bedstraw plant response rating,bedstraw; [7],0
same,Bedstraw plant response rating,bedstraw; [8],2
same,Bedstraw plant response rating,bedstraw; [9],8
same,Velvetleaf plant response rating,velvetleaf; [5],0
same,Velvetleaf plant response rating (0 to 10 scale),"velvetleaf; Preemergence, Rate 125 g/ha",0
same,Velvetleaf plant response rating,velvetleaf; [6],0
same,Velvetleaf plant response rating,velvetleaf; [7],0
same,Velvetleaf plant response rating,velvetleaf; [8],0
same,Velvetleaf plant response rating,velvetleaf; [9],0
same,"Plant response rating, Velvetleaf",velvetleaf; [10],0
same,"Plant response rating, Velvetleaf",velvetleaf; [11],2
same,Nutsedge plant response rating,purple nutsedge; [5],0
same,Nutsedge plant response rating (0 to 10 scale),"purple nutsedge; Preemergence, Rate 125 g/ha",0
same,Nutsedge plant response rating,purple nutsedge; [6],0
same,Nutsedge plant response rating,purple nutsedge; [8],0
same,Nutsedge plant response rating,purple nutsedge; [9],0
same,"Plant response rating, Nutsedge",purple nutsedge; [10],0
same,"Plant response rating, Nutsedge",purple nutsedge; [11],0
same,Morningglory plant response rating,morningglory; [5],0
same,Morningglory plant response rating (0 to 10 scale),"morningglory; Preemergence, Rate 125 g/ha",0
same,Morningglory plant response rating,morningglory; [6],0
same,Morningglory plant response rating,morningglory; [7],0
same,Morningglory plant response rating,morningglory; [8],4
same,Morningglory plant response rating,morningglory; [9],6
same,"Plant response rating, Morningglory",morningglory; [10],8
same,"Plant response rating, Morningglory",morningglory; [11],8
same,Corn plant response rating,corn; [5],0
same,Corn plant response rating (0 to 10 scale),"corn; Preemergence, Rate 125 g/ha",0
same,Corn plant response rating,corn; [6],0
same,Corn plant response rating,corn; [7],0
same,Corn plant response rating,corn; [8],0
same,Corn plant response rating,corn; [9],0
same,"Plant response rating, Corn",corn; [10],0
same,"Plant response rating, Corn",corn; [11],0
same,Giant foxtail plant response rating,giant foxtail; [5],3
same,Giant foxtail plant response rating (0 to 10 scale),"giant foxtail; Preemergence, Rate 125 g/ha",7
same,Giant foxtail plant response rating,giant foxtail; [6],8
same,Giant foxtail plant response rating,giant foxtail; [7],10
same,Giant foxtail plant response rating,giant foxtail; [8],0
same,Giant foxtail plant response rating,giant foxtail; [9],0
same,"Plant response rating, Giant foxtail",giant foxtail; [10],0
same,"Plant response rating, Giant foxtail",giant foxtail; [11],0
same,Rape plant response rating,rape; [5],0
same,Rape plant response rating (0 to 10 scale),"rape; Preemergence, Rate 125 g/ha",0
same,Rape plant response rating,rape; [6],0
same,Rape plant response rating,rape; [7],0
same,Rape plant response rating,rape; [8],0
same,Rape plant response rating,rape; [9],0
same,"Plant response rating, Rape",rape; [10],0
same,"Plant response rating, Rape",rape; [11],2
same,Sugarbeets plant response rating,sugar beet; [5],0
same,Sugarbeets plant response rating (0 to 10 scale),"sugar beet; Preemergence, Rate 125 g/ha",0
same,Sugarbeets plant response rating,sugar beet; [6],0
same,Sugarbeets plant response rating,sugar beet; [7],0
same,Sugarbeets plant response rating,sugar beet; [8],0
same,Sugarbeets plant response rating,sugar beet; [9],0
same,"Plant response rating, Sugarbeets",sugar beet; [10],0
same,"Plant response rating, Sugarbeets",sugar beet; [11],0
same,B. signalgrass plant response rating,surinam grass; [5],0
same,"B. signalgrass plant response rating (0 to 10 scale, 0 is no effect, 10 is complete control)","surinam grass; Preemergence, Rate 125 g/ha",0
same,B. signalgrass plant response rating,surinam grass; [6],0
same,B. signalgrass plant response rating,surinam grass; [7],0
same,B. signalgrass plant response rating,surinam grass; [8],0
same,B. signalgrass plant response rating,surinam grass; [9],0
same,"Plant response rating, B. signalgrass",surinam grass; [10],0
same,"Plant response rating, B. signalgrass",surinam grass; [11],2
